Measurements reported in patent US20250170154A1 (GreenStone Biosciences, Inc., priority 2023, published 2025).
Read-outs that look alike come from different tables or passages of the source.

Tests used:
[1] = Thermodynamic solubility in FaSSIF; type: physicochemical; conditions: thermodynamic from solid, room temperature, 24 hours shaking
Protocol: After shaking, the samples were centrifuged at 25° C. for 20 minutes at 4000 rpm. Filtrates were prepared using the Whatman Mini-UniPrep Syringeless Filter Device (PTFE filter media with polypropylene housing, pore size 0.45 μm) from Cytiva, and dilutions were performed as required. Quantification of all samples was carried out using an LC-UV system.

[2] = Pharmacokinetics in the rat, dosing in solution; conditions: in vivo
[3] = Stability in simulated gastric fluid (SGF); type: in vitro ADME; conditions: SGF pH 1.2, 37° C., 2 μM
Protocol: The stability of compounds 1 to 4, and the control compound omeprazole, were measured in simulated gastric fluid (SGF: 0.2% w/v sodium chloride, 0.7% v/v hydrochloric acid, and 0.32% w/v pepsin in deionized water, pH 1.2±0.05). Stock solutions of the compounds (10 mM) were diluted to 200 μM in DMSO, then duplicate 2 μL aliquots added to 96-well plates for time points 0, 1, 2, 6, and 24 hours. SGF (198 μL) was added to all wells except those for time 0, to give a starting compound concentration of 2 μM; and the samples were incubated at 37° C. with agitation at 600 rpm for the prescribed times. After incubation, 200 μL of each sample was extracted and mixed with 400 μL cold ACN containing 200 ng/mL tolbutamide and labetalol as internal standards. The samples were centrifuged at […] for 20 minutes at 4° C., and the supernatants (60 μL) each diluted with purified water (180 μL) for LC/MS/MS analysis. The percentage of the test compound remaining at each time point was calculated based on the ratio of the peak area of the analyte to the internal standards.

[4] = Intestinal stability, human intestinal S9; type: in vitro ADME
Protocol: (§1) The stability of compounds 1 and 2, and the control compound 7-hydroxycoumarin, were measured using human, rat, and mouse intestinal S9 fractions (Xenotech). Test compound working solutions were prepared by diluting 5 μL of 10 mM stock solutions in DMSO with 495 μL AN. S9 solutions were prepared by diluting the obtained S9 solutions to 1.0 mg/mL in 100 mM potassium phosphate buffer at pH 7.4 containing 10 mM D-saccharic acid-1,4-lactone. An Apricot automation workstation was used to add 100 μL/well of S9 solution to all reaction plates (Blank, T0, T5, T15, T30, T45, T60 and NCF60); 2 μL/well of compound working solutions were added to all 96-well reaction plates except the blank (T0, T5, T15, T30, T45, T60, and NCF60); 600 μL/well of stop solution (4° C. ACN containing 200 ng/mL tolbutamide and 200 ng/mL labetalol as internal standards) was added to the T0 reaction plate; all plates were pre-incubated at 37° C. for 10 minutes; a cofactor regenerating system (98 μL/well) was added, excluding the NCF60 plate which instead received 98 μL/well of 100 mM potassium phosphate buffer. All plates were then incubated at 37° C. To terminate reactions, 600 μL/well of stop solution was applied at specific end time points. After sealing and a 10-minute shaking, plates were centrifuged at 4000 rpm and 4° C. for 20 minutes. Concurrently, 300 μL/well of HPLC grade water was loaded onto eight new 96-well bioanalysis plates. Post-centrifugation, 100 μL supernatant from each reaction plate was transferred to its corresponding bioanalysis plate, shaken for 10 minutes, and then subjected to LC-MS/MS analysis (Shimadzu LC-40D LC system coupled to a Sciex Qtrap 6500 Plus mass spectrometer, using both positive and negative ion modes).

[5] = Intestinal stability, rat intestinal S9; type: in vitro ADME
Protocol: as §1

[6] = Intestinal stability, mouse intestinal S9; type: in vitro ADME; conditions: intestinal S9 fraction
Protocol: as §1

[7] = Conjugate formation in intestinal S9 incubations; type: in vitro ADME, human, rat, mouse
Protocol: as §1, with “Concurrently, 300 μL/well of HPLC grade water was loaded onto eight new 96-well bioanalysis plates. Post-centrifugation, 100 μL supernatant from each reaction plate was transferred to its corresponding bioanalysis plate, shaken for 10 minutes, and then subjected to LC-MS/MS analysis (Shimadzu LC-40D LC system coupled to a Sciex Qtrap 6500 Plus mass spectrometer, using both positive and negative ion modes).” left out

[8] = Wang et al.; cited from earlier work
[9] = system: patients with bladder cancer; conditions: 300 and 600 mg daily for 21 days; cited from earlier work
mdx mice = conditions: Messina et al., cited from earlier work
log P = type: physicochemical
[10] = system: Db/Db mice fed a high fat diet; assay: Genistein in Db/Db mice fed a high fat diet; type: in vivo, mouse; conditions: high fat diet 6 weeks, then oral gavage 50 mg/Kg genistein in corn oil for 47 days
[11] = system: wild-type mice fed a high fat diet; assay: Genistein in wild-type mice fed a high fat diet; type: in vivo, mouse; conditions: high fat diet 12 weeks, then intraperitoneal 200 mg/Kg genistein in corn oil for 14 days
[12] = system: mice with L-arginine induced acute pancreatitis; conditions: Siriviriyakul et al., cited from earlier work
[13] = system: children with Sanfillipo syndrome; conditions: 160 mg/kg/day for 12 months, median age 7.2 years; cited from earlier work
healthy volunteers = conditions: amorphous solid dispersion, single doses 500 to 3000 mg, then 3000 mg over six consecutive days; cited from earlier work
[14] = system: rat model of monocrotaline-induced pulmonary hypertension; conditions: Matori et al.; cited from earlier work
[15] = system: rats with cerulein (AEP) or sodium taurocholate (ANP) induced pancreatitis; conditions: Xia et al.; cited from earlier work
postmenopausal women = conditions: 54 mg per day, cited from earlier work
[16] = target: G protein-coupled estrogen receptor (Homo sapiens, UniProt Q99527); conditions: cited from earlier work
[17] = target: transthyretin tetramer (TTR) (Homo sapiens, UniProt P02766); conditions: Green et al.; cited from earlier work
[18] = system: transthyretin tetramer (TTR); conditions: Green et al.; cited from earlier work
[19] = Pharmacokinetics in the rat, solid form (powder in mini-capsules); type: in vivo
[20] = intestinal S9 fraction, pH 7.4, read-out: intrinsic clearance rate
[21] = solid form, genistein 71 mg/Kg together with 14.2 mg/Kg inulin

G protein-coupled estrogen receptor, sequence (Q99527 whole entry): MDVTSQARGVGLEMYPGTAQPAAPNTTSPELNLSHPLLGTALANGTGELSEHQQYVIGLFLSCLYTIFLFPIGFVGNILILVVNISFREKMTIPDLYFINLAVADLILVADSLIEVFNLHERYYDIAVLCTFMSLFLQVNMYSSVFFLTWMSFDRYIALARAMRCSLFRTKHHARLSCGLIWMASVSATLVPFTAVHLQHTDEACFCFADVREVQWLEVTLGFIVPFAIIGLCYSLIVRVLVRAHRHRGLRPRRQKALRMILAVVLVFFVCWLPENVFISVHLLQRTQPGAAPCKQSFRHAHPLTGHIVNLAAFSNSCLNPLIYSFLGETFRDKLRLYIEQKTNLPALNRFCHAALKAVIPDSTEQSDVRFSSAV

O=c1c(-c2ccc(OCOP(=O)(O)O)cc2)coc2cc(O)cc(O)c12 [Compound 1, (4-(5,7-Dihydroxy-4-oxo-4H-chromen-3-yl)phenoxy)methyl dihydrogen phosphate]
solubility at 24 h ([1]; read-out: Solubility): 12.5 mM | solubility at 24 h ([1]; read-out: Solubility (μg/mL)): 4770 µg/mL | Cmax ([2]; male, SD, rat, 25 mg/kg): ~15 ng/mL | Tmax ([2]; male, SD, rat, 25 mg/kg): ~8 min | decline of plasma concentration of dosed compound ([2]; rat, 25 mg/kg): very rapid decline in concentration | Percentage remaining at time: 1 hour [3]: 94.4% | Percentage remaining at time: 2 hours [3]: 91.5% | Percentage remaining at time: 6 hours [3]: 83.8% | Percentage remaining at time: 24 hours [3]: 42.1% | Percentage remaining at time: 0 [3]: 100% | normalized control factor remaining [4]: 24.9% | half-life at 1 µM ([4]; intestinal S9 fraction, pH 7.4): 28.7 min | microsomal CLint at 1 µM [4, 20]: 48.4 µL/min/mg | normalized control factor remaining [5]: 30.4% | half-life at 1 µM ([5]; intestinal S9 fraction, pH 7.4): 2.6 min | microsomal CLint at 1 µM [5, 20]: 526 µL/min/mg | half-life at 1 µM ([6]; pH 7.4): 29.7 min | microsomal CLint at 1 µM ([6]; pH 7.4, read-out: intrinsic clearance rate): 46.7 µL/min/mg | formation of glucuronidation, sulfation, and glutathione conjugates [7]: noticeable absence

O=c1c(-c2ccc(OCOP(=O)(O)O)cc2)coc2cc(OCOP(=O)(O)O)cc(O)c12 [Compound 3, ((5-Hydroxy-4-oxo-3-(4-((phosphonooxy)methoxy)phenyl)-4H-chromen-7-yl)oxy)methyl dihydrogen phosphate]
solubility at 24 h ([1]; read-out: Solubility): 10.2 mM | solubility at 24 h ([1]; read-out: Solubility (μg/mL)): 5000 µg/mL | Percentage remaining at time: 1 hour [3]: 95.1% | Percentage remaining at time: 2 hours [3]: 101% | Percentage remaining at time: 6 hours [3]: 96.1% | Percentage remaining at time: 24 hours [3]: 51.4% | Percentage remaining at time: 0 [3]: 100%

CC(C)(CCCOP(=O)(O)O)C(=O)Oc1ccc(-c2coc3cc(O)cc(O)c3c2=O)cc1 [Compound 4, 4-(5,7-Dihydroxy-4-oxo-4H-chromen-3-yl)phenyl 2,2-dimethyl-5-(phosphonooxy)pentanoate]
solubility at 24 h ([1]; read-out: Solubility): 0.612 mM | solubility at 24 h ([1]; read-out: Solubility (μg/mL)): 293 µg/mL | Percentage remaining at time: 1 hour [3]: 104% | Percentage remaining at time: 2 hours [3]: 110% | Percentage remaining at time: 6 hours [3]: 114% | Percentage remaining at time: 24 hours [3]: 106% | Percentage remaining at time: 0 [3]: 100%

COc1ccc2[nH]c([S+]([O-])Cc3ncc(C)c(OC)c3C)nc2c1 (centres unmarked) [Omeprazole, omeprazole, reference compound]
Percentage remaining at time: 1 hour [3]: 35.4% | Percentage remaining at time: 2 hours [3]: 23.1% | Percentage remaining at time: 6 hours [3]: 4.2% | Percentage remaining at time: 24 hours [3]: 0% | Percentage remaining at time: 0 [3]: 100%

O=c1c(-c2ccc(O)cc2)coc2cc(OP(=O)(O)O)cc(O)c12 [Genistein-7-O-phosphate, genistein 7-O-phosphate, reference compound]
solubility at 24 h ([1]; read-out: Solubility): 3.57 mM | solubility at 24 h ([1]; read-out: Solubility (μg/mL)): 1250 µg/mL | bioavailability [8]: more bioavailable than aglyconic genistein | water solubility [8]: practically water soluble

O=c1c(-c2ccc(O)cc2)coc2cc(O)cc(O)c12 [Genistein, 5,7-dihydroxy-3-(4-hydroxyphenyl)-4H-chromen-4-one]
solubility at 24 h ([1]; read-out: Solubility): 0.027 mM | solubility at 24 h ([1]; read-out: Solubility (μg/mL)): 7.29 µg/mL | tolerability [9]: well tolerated, with no to mild side effects | markers of oxidative stress (mdx mice): reduced | muscle necrosis (mdx mice): reduced | muscle regeneration (mdx mice): enhanced | serum creatine-kinase levels (mdx mice): reduced | forelimb strength and strength normalized to weight (mdx mice; five-week old mdx mice, five weeks, daily or 3-times/week): increased | AUC(0-t) ([2]; solution, 25 mg/Kg nominal, fasted male SD rat, read-out: mean AUC0-last of dosed compound in plasma): ~500 ng·h/mL | Cmax ([2]; solution, 25 mg/Kg nominal, fasted male SD rat, read-out: mean cmax of dosed compound in plasma): ~300 ng/mL | half-life ([2]; solution, 25 mg/Kg nominal, fasted male SD rat, read-out: mean t1/2 of dosed compound in plasma (converted)): ~78 min | Tmax ([2]; solution, 25 mg/Kg nominal, fasted male SD rat, read-out: mean tmax of dosed compound in plasma (converted)): 10 min | logP (log P): 3.04 | reduction of HbA1C [10]: ~37% | reduction of fasting blood glucose [10]: ~57% | reduction of fasting blood glucose [11]: ~30% | edema, necrosis and cell death induced by L-arginine ([12]; 10 mg/Kg/day and 100 mg/Kg/day): significantly reducing | serum amylase, IL-6 and CRP levels ([12]; 10 mg/Kg/day and 100 mg/Kg/day): significantly reduced | NF-κB and 4-HNE expression [12]: curbing | adverse effects [13]: No treatment-specific severe adverse effects were reported | adverse effects (healthy volunteers): No significant adverse effects were reported, other than instances of diarrhea, headache or nausea at the highest dosages | monocrotaline-induced preexisting PH [14]: reversed | progression of severe PH to right heart failure [14]: prevented | right ventricular ejection fraction [14]: restoring | right ventricular pressure [14]: reducing | necrosis, edema and inflammatory infiltration compared to the experimental models [15]: mitigated | bone mineral density at femoral neck and lumbar spine (postmenopausal women; after 36 months): greater increases | mammographic breast density, endometrial thickness, expression of BRCA1 and BRCA2 (postmenopausal women; after 36 months): no significant changes | sister chromatid exchange compared to placebo (postmenopausal women; after 36 months): reducing | discomfort or adverse events between participants (postmenopausal women): No differences | affinity, agonist of G protein-coupled estrogen receptor [16]: 133 nM | acid-mediated fibril formation, of that exhibited by TTR alone [17]: < 10% | binding to TTR in plasma over all of the other plasma proteins [17]: highly selective binding | amyloidogenesis of TTR mutations V30M and V122I [18]: inhibits | AUC(0-t) ([19]; male, SD, rat, in vivo, po, 71 mg/kg, solid form, genistein 71 mg/Kg alone, considerable variability, read-out: mean AUC0-last of dosed compound in plasma): ~500 ng·h/mL | AUC(0-t) ([19]; male, SD, rat, in vivo, po, 71 mg/kg, solid form, genistein 71 mg/Kg together with 14.2 mg/Kg inulin, read-out: mean AUC0-last with addition of inulin): ~300 ng·h/mL | Cmax ([19]; male, SD, rat, in vivo, po, 71 mg/kg, read-out: mean cmax of dosed compound in plasma): ~160 ng/mL | Tmax ([19]; male, SD, rat, in vivo, po, 71 mg/kg, read-out: mean tmax of dosed compound in plasma): ~180 min | half-life ([19]; male, SD, rat, in vivo, po, read-out: mean t1/2 of dosed compound in plasma (converted)): ~120 min | effect of inulin on the peak [19, 21]: slightly reducing | time of peak with addition of inulin [19, 21]: around 5 hours
